The results in this text go back to US20150044701A1, “IgA-BINDING PEPTIDE AND IgA PURIFICATION USING THE SAME” (KAGOSHIMA UNIVERSITY, priority 2011, published 2015).

No end group written: not given here.

The target of one assay is human IgA. The experiment in a line: Surface plasmon resonance analysis (BiaCore T100) of peptide binding to human IgA. The following applies: binding affinity to human IgA. As for the experimental part: In order to verify binding specificity of such peptides, binding strength was evaluated via surface plasmon resonance analysis using a BiaCore T100 (GE Healthcare).
For orientation: SPR reads the build-up and loss of mass on a sensor chip optically.

The next assay concerns the target human IgA (human). The experiment in a line: SPR (Biacore T100).

In general, Kd refers to the constant that tells how readily two partners part at equilibrium. The molecule HQVCLSYRGRPVCYSL [Opt2 M2Q F14Y] showed a Kd at human IgA of 624 nM. HQVCLSYRGRPTCFSL [Opt2 M2Q V12T] yielded an equilibrium dissociation constant (Kd) at human IgA of 149 nM. The same measure, in the same setting: with “HQVCLSYRGQPTCFST [Opt2 M2Q L16T R10 Q V12T]” the figure was 2820 nM; with HMVCLSYRGRPVCF [Opt2 14AA], 603 nM.

In turn, HQVCLSYRGQPVCFSL [Opt2 M2Q R10Q] returned a Kd on human IgA of 65 nM. For HQVCLSYRGRPTCFST [Opt2 M2Q L16T V12T], the affinity at human IgA, expressed as Kd, was 952 nM.

With HMVCLSYRGRPVCFS [Opt2 15AA], at human IgA, the dissociation constant (Kd) came out at 491 nM. The same measure, in the same setting: with HQVCLSYRGQPVCFST [Opt2 M2Q L16T R10Q] the figure was 699 nM; with HQVCLSYRGRPVCFSL [Opt2 M2Q], 23 nM.

Turning to HQVCLSYRGRPVCFST [Opt2 M2Q L16T], the affinity on human IgA, expressed as Kd, was 72 nM.

B1: Opt2 M2Q L16T R10Q (peptide)
peptide: HQVCLSYRGQPVCFST
modifications: not fully specified (bridges); cysteine pairing not given here
As for B1, in the assay with human IgA (human), the Kd was 699 nM.

B2: Opt2 M2Q L16T (peptide)
peptide: HQVCLSYRGRPVCFST
modifications: not fully specified (bridges); cysteine pairing not given here
In the assay with human IgA (human), B2 gave a dissociation constant (Kd) of 72 nM.

B3: Opt2 M2Q L16T R10 Q V12T (peptide)
peptide: HQVCLSYRGQPTCFST
modifications: not fully specified (bridges); cysteine pairing not given here
Turning to B3, in the assay with human IgA (human), the dissociation constant Kd was 2820 nM.

B4: Opt2 M2Q V12T (peptide)
peptide: HQVCLSYRGRPTCFSL
modifications: not fully specified (bridges); cysteine pairing not given here
B4 came in with a Kd with human IgA (human) of 149 nM.

B5: Opt2 M2Q R10Q (peptide)
peptide: HQVCLSYRGQPVCFSL
modifications: not fully specified (bridges); cysteine pairing not given here
Turning to B5, the dissociation constant Kd with human IgA (human) amounted to 65 nM.

B6: Opt2 14AA (peptide)
peptide: HMVCLSYRGRPVCF
modifications: not fully specified (bridges); cysteine pairing not given here
Molecule B6 returned a Kd with human IgA (human) of 603 nM.

B7: Opt2 15AA (peptide)
peptide: HMVCLSYRGRPVCFS
modifications: not fully specified (bridges); cysteine pairing not given here
In the assay with human IgA (human), B7 came in with a Kd of 491 nM.

B8: Opt2 M2Q L16T V12T (peptide)
peptide: HQVCLSYRGRPTCFST
modifications: not fully specified (bridges); cysteine pairing not given here
B8 registered an equilibrium dissociation constant (Kd) with human IgA (human) of 952 nM.

B9: Opt2 M2Q F14Y (peptide)
peptide: HQVCLSYRGRPVCYSL
modifications: not fully specified (bridges); cysteine pairing not given here
Molecule B9 had an equilibrium dissociation constant (Kd) with human IgA (human) of 624 nM.

B10: Opt2 M2Q (peptide)
peptide: HQVCLSYRGRPVCFSL
modifications: not fully specified (bridges); cysteine pairing not given here
Regarding B10, in the assay with human IgA (human), the Kd is 23 nM.
